What was measured:
[1] = Partition coefficient (logP) (HPLC); details: octanol/water
[2] = Partition coefficient (logP); details: octanol/water
[3] = HPLC capacity factor (k); assay type: ADME

Compound | logP [1] | Log k'w | logP [2] | Log K'w [3]
c1ccc2ccccc2c1 | 3.51 | 3.06 | – | –
Oc1cc(Cl)cc(Cl)c1 | 3.88 | 3.4 | 3.68 | –
CSc1ncnc2c1ncn2[C@@H]1O[C@H](CO)[C@@H](O)[C@H]1O | 0.34 | 0.19 | – | –
Oc1cccc(Cl)c1 | – | 2.49 | – | –
Brc1cnc2ccccc2c1 | 2.93 | 2.54 | – | –
CC(=O)Nc1ccc(O)cc1 [ACETAMINOPHEN] | 0.11 | – | 0.51 | -0.02
CC(=O)c1ccccc1 [ACETOPHENONE] | – | 1.31 | – | –
Oc1ncnc2[nH]ncc12 [ALLOPURINOL] | -0.85 | – | – | -0.89
Cc1cc(=O)n(-c2ccccc2)n1C [ANTIPYRINE] | – | – | – | 0.09
c1ccc(-c2ccc(C(c3ccccc3)n3ccnc3)cc2)cc1 (stereo unspecified) [BIFONAZOLE] | 4.95 | 4.37 | – | –
O=C1CN=C(c2ccccn2)c2cc(Br)ccc2N1 [BROMAZEPAM] | 1.38 | – | 1.65 | 1.13
Cn1c(=O)c2c(ncn2C)n(C)c1=O [CAFFEINE] | – | -0.31 | – | –
NC(=O)N1c2ccccc2C=Cc2ccccc21 [CARBAMAZEPINE] | 2.01 | – | 2.19 | 1.7
Clc1ccccc1C(c1ccccc1)(c1ccccc1)n1ccnc1 [CLOTRIMAZOLE] | – | 4.13 | – | –
C[C@@H]1C[C@H]2[C@@H]3CCC4=CC(=O)C=C[C@]4(C)[C@@]3(F)[C@@H](O)C[C@]2(C)[C@@]1(O)C(=O)CO [DEXAMETHASONE] | 2.37 | 2.03 | – | –
CC/C(=C(/CC)c1ccc(O)cc1)c1ccc(O)cc1 [DIETHYLSTILBESTROL] | 4.72 | 4.16 | – | –

Compound | logP [1] | Log k'w | logP [2] | Log K'w [3]
C[C@]12CC[C@@H]3c4ccc(O)cc4CC[C@H]3[C@@H]1CC[C@@H]2O [ESTRADIOL] | 3.82 | 3.34 | – | –
COC1=CC(=O)C[C@@H](C)[C@]12Oc1c(Cl)c(OC)cc(OC)c1C2=O [GRISEOFULVIN] | 2.57 | 2.21 | – | –
CC(=O)OCC(=O)[C@@]1(O)CC[C@H]2[C@@H]3CCC4=CC(=O)CC[C@]4(C)[C@H]3[C@@H](O)C[C@@]21C [HYDROCORTISONE ACETATE] | 2.26 | 1.93 | 2.19 | –
C[C@]12CCC(=O)C=C1CC[C@@H]1[C@@H]2[C@@H](O)C[C@@]2(C)[C@H]1CC[C@]2(O)C(=O)CO [HYDROCORTISONE] | – | 1.43 | – | –
O=C1Nc2ccc(Cl)cc2C(c2ccccc2Cl)=NC1O (stereo unspecified) [LORAZEPAM] | 2.74 | – | – | 2.36
CN1C(=O)C(O)N=C(c2ccccc2Cl)c2cc(Cl)ccc21 (stereo unspecified) [LORMETAZEPAM] | 2.78 | 2.4 | 2.72 | –
Cc1ncc([N+](=O)[O-])n1CCO [METRONIDAZOLE] | -0.22 | – | – | -0.32
O=[N+]([O-])c1ccc(/C=N/O)o1 [NIFUROXIME] | 1.36 | 1.11 | 1.28 | –
NC(=O)N/N=C/c1ccc([N+](=O)[O-])o1 [NITROFURAZONE] | 0.24 | 0.1 | – | –
CC(=O)CCCCn1c(=O)c2c(ncn2C)n(C)c1=O [PENTOXIFYLLINE] | 0.31 | 0.16 | 0.29 | –
C[C@]12C=CC(=O)C=C1CC[C@@H]1[C@@H]2[C@@H](O)C[C@@]2(C)[C@H]1CC[C@]2(O)C(=O)CO [PREDNISOLONE] | 1.83 | 1.54 | – | –
C[C@]12C=CC(=O)C=C1CC[C@@H]1[C@@H]2C(=O)C[C@@]2(C)[C@H]1CC[C@]2(O)C(=O)CO [PREDNISONE] | 1.47 | 1.21 | – | –
c1ccc2ncccc2c1 [QUINOLINE] | 1.85 | – | – | –
C[C@]12CC[C@H]3[C@@H](CCC4=CC(=O)CC[C@@]43C)[C@@H]1CC[C@@H]2O [TESTOSTERONE] | – | 2.74 | – | –
CS(=O)(=O)c1ccc([C@@H](O)[C@@H](CO)NC(=O)C(Cl)Cl)cc1 [THIAMPHENICOL] | -0.13 | -0.24 | -0.27 | –
Cc1cccc(N(C)C(=S)Oc2ccc3ccccc3c2)c1 [TOLNAFTATE] | 5.15 | 4.55 | 5.4 | –

Source: ChEMBL document CHEMBL1133461, “ElogPoct: a tool for lipophilicity determination in drug discovery” (J Med Chem, 2000)
